The results in this text go back to patent publication US20230302131A1, “MPC INHIBITION FOR PRODUCING T-CELLS WITH A MEMORY PHENOTYPE” (UNIVERSITÉ DE LAUSANNE, priority 2020, published 2023).

In one assay the test system is OT1 T cells. As to the kind of experiment: RNA sequencing of OT1 T cells. Format: cell-based, mouse. The note with it: day 7; compared to DMSO. The protocol:
To evaluate the effects of MPC inhibition on T cell differentiation, OT1 splenocytes were cultured in the presence of 1 μg/ml ovalbumin-derived N4 (SIINFEKL) peptide, 100 IU/ml recombinant human IL-2 (rhIL-2) and the MPC inhibitor (MPCi) UK5099 at 75 μM or control DMSO for 3 days. The inhibitor or DMSO was then washed away and the cells were cultured for 4 more days in the presence of 100 IU/ml IL-2 and 10 ng/ml rhIL-7 (FIG. 1A). […] Thus, the increase in the memory markers upon MPCi in vitro treatment occurs at the transcriptional level.
[…] Purity-filtered reads were adapters and quality trimmed with Cutadapt (v. 1.8, Martin 2011). Reads matching to ribosomal RNA sequences were removed with fastq_screen (v. 0.9.3). Remaining reads were further filtered for low complexity with reaper (v. 15-065, Davis et al. 2013). Reads were aligned against Mus musculus.GRCm38.86 genome using STAR (v. 2.5.2b, Dobin et al. 2013). The number of read counts per gene locus was summarized with htseq-count (v. 0.6.1, Anders et al. 2014) using Mus musculus.GRCm38.86gene annotation. Quality of the RNA-seq data alignment was assessed using RSeQC (v. 2.3.7, Wang et al. 2012). Reads were also aligned to the Mus musculus.GRCm38.86 transcriptome using STAR (v. 2.5.2b, Dobin et al. 2013) and the estimation of the isoforms abundance was computed using RSEM (v. 1.2.31, Li and Dewey 2011). Statistical analysis was performed for genes in R (R version 3.4.0). An analysis with all genes, including mitochondria, was done. Genes with less than one count per million in all samples were filtered out. Library sizes were scaled using TMM normalization (EdgeR package version 3.14.0; Robinson et al. 2010) and log-transformed with EdgeR cpm function.
Differential expression was computed with limma (Ritchie et al. 2015) by fitting the samples into a linear model using all conditions as factors and correcting for batch effect by introducing factors for the replicates (=paired analysis).

In assay [1] the test system is human CD8 T cells from umbilical cord blood. As to the kind of experiment: Human cord blood PBMC culture with anti-CD3/CD28 beads, CD62L in CD8 T cells by flow cytometry. Format: cell-based. The note with it: 25 μM; day 11; 3 different donors; versus DMSO. The protocol:
To most closely mimic the experimental conditions that were successful by using naïve mouse OT1 CD8 T cells, it was tested whether the MPCi on the most naïve human CD8+ T cells can be obtained, i.e. from umbilical cord blood (FIG. 1E).
(§1) Peripheral blood mononuclear cells were isolated from fresh umbilical vein cord blood on a Percoll gradient. PBMCs were then cultured in RPMI supplemented with 10% human serum. 10^4 PBMC's were seeded per well in a round bottom 96-well plate and activated with anti-CD3/CD28 beads at a 1:2 cell:bead ratio and 300 U/ml rhIL-2, in the presence of 25 μM UK5099 or DMSO. Cells were regularly split and CD62L expression was determined by flow cytometry on day 11.

Assay [2] concerns transferred OT1 cells in LM-OVA infected mice. As to the kind of experiment: In vivo Listeria-Ova infection model after adoptive transfer of pre-treated OT1 cells. Also on record: species or system mouse. An excerpt:
In order to evaluate whether this memory phenotype is maintained in vivo, 10^5 MPCi- or DMSO-treated OT1 cells were intravenously injected in healthy mice. Twenty-four hours after cell transfer, the mice were infected with a sub-lethal dose of ovalbumine-expressing Listeria monocytogenes (LM-OVA, 2000 CFU i.v.) (FIG. 1H). […] Consequently, 28 days after LM-OVA infection, during the memory phase of the immune reaction, the proportion of central memory T cells (CD44+CD62L+) among the transferred cells in the blood was larger in mice that received cells pre-treated with MPCi (FIG. 1K). Importantly, the effects of the MPC inhibitor were target specific, since an increase in memory T cell differentiation could also be observed when MPC1 KO T cells were transferred in this Listeria model (FIG. 1L-N). In summary, MPCi-treated cells display a consistent memory phenotype upon in vivo transfer in an infection model.
Activated CD45.1+OT-1 splenocytes were culture in vitro for 7 days as described above, collected and purified on a Ficoll gradient, allowing to separate dead and live splenocytes. Live splenocytes were counted with Trypan blue stain 0.4%. 100′000 live splenocytes were transferred into CD45.2+ host mice by tail vein injection.
Recombinant bacteria Listeria monocytogenes deficient for actA and expressing the ovalbumin (Ova) peptide SIINFEKL were expanded and tittered. Optical density measured with a spectrophotometer was used to determine bacterial concentration and 2000 CFU were administered in each mouse by tail vein injection, […] after adoptive cell transfer. Blood samples were collected and processed for surface markers and cytokine production analyses.
Antibody panels for blood analyses contained: CD8-PE-texas-Red, CD45.1-Pacific blue, CD45.2-FITC, CD127-PE, KLRG1-PE-Cy7, CD62L-APC, CD44-APC-Cy7, and CD27-PerCP-Cy5.5.

The test system of another assay is human CD4 T cells. Kind of assay: Human cord blood PBMC culture, CD62L in CD3-pos/CD8-neg (CD4) T cells. Format: cell-based. The conditions noted are these: 25 μM; day 11; vs DMSO. On the procedure:
as §1
CD62L expression in human CD4 T cells was also analyzed. Human cord blood PBMCs were cultured and activated as described before, in the presence of 25p M UK5099 or DMSO control. About 98% of the cells in culture on day 11 are CD3-positive. Since CD3 is exclusively expressed on CD4 and CD8 T cells, we can deduct that all CD3-positive, CD8-negative must be CD4 T cells. When analyzing the CD3-pos/CD8-neg population we observed that CD62L expression is increased upon MPCi treatment (FIG. 5D).

SMILES strings stand for the structures.

On to `N#CC(=Cc1cn(-c2ccccc2)c2ccccc12)C(=O)O` [UK5099, 2-cyano-3-(1-phenyl-1H-indol-3-yl)-2-propenoic acid], for which, in the assay on OT1 T cells, the “Ccr7 expression, RNA sequencing” value was “increased”; the “Sell (CD62L) expression, RNA sequencing” value is listed as “at least 1.5 fold”; the “Tcf7 expression, RNA sequencing” value was “increased”. In addition, in assay [1], the “CD62L expression in human cord blood CD8 T cells” value is recorded as “significant increase”. For the same compound, in assay [2] (28 days after LM-OVA infection, vs DMSO), the “proportion of central memory T cells (CD44+CD62L+) among the transferred cells in the blood” value was “larger”. In assay [2] (day 7 post-LM-OVA, blood, pre-treated OT1 cells vs DMSO), the “frequency of memory precursor cells (CD127+, KLRG1low)” value was “significantly increased”. In assay [2] (weekly bleeding, peak of immune response and contraction phase, cells pre-treated in vitro), the “frequency of the transferred cells in blood” value was “did not reveal significant differences”. In addition, the “CD62L expression in human CD3-pos/CD8-neg (CD4) T cells” value in the assay with human CD4 T cells is reported as “increased”.
